Series [1] has as its system Rattus norvegicus. In words: Anti-diabetic activity in normal Wistar rat model assessed as blood glucose level at 20 mg/kg, po followed by treated administered 3 mg/kg orally measured immediately after administration by Oral glucose tolerance test (reference value: 105.12 mg/dL). It is filed as functional.
The subject of series [2] is Rattus norvegicus. In words: Antihyperlipidemic effect in STZ-induced type 2 diabetes male Wistar albino rat model assessed as triglyceride level at 20 mg/kg, po measured after 4 weeks (reference value: 190.23 +/- 4.37 mg/dL). Type of series: functional.
Series [3] has as its system Rattus norvegicus. In words: Anti-diabetic activity in normal Wistar rat model assessed as blood glucose level at 10 mg/kg, po followed by treated administered 3 mg/kg orally measured after 30 mins by Oral glucose tolerance test (reference value: […] 176.14 + /- 4.04 mg/dL). To be noted: 0.5 h. It is filed as functional.
Series [4] in a line: Acute toxicity in Balb/C mouse assessed as morphological changes in skin at 1250 to 2000 mg/kg, po. It is filed as organism-based. To be noted: in vivo, dose 1250-2000 mg/kg.
Series [5] has as its system Rattus norvegicus. In words: Anti-diabetic activity in normal Wistar rat model assessed as blood glucose level at 20 mg/kg, po followed by treated administered 3 mg/kg orally measured after 30 mins by Oral glucose tolerance test (reference value: 176.14 + /- 4.04 mg/dL). Type of series: functional. As to conditions: 0.5 h.
In series [6] the test system is Rattus norvegicus. In words: Antihyperlipidemic effect in STZ-induced type 2 diabetes male Wistar albino rat model assessed as HDL level at 20 mg/kg, po measured after 4 weeks (reference value: 25.54 +/- 2.62 mg/dL). Type of series: functional.
A short description of series [7]: Acute toxicity in Balb/C mouse assessed as changes in general appearance at 1250 to 2000 mg/kg, po. Type of series: organism-based. As to conditions: in vivo, dose 1250-2000 mg/kg.
A further series concerns the target Dipeptidyl peptidase 8 (Homo sapiens, UniProt Q6V1X1). In words: Inhibition of DPP8 (unknown origin) assessed as hydrolysis rate using Gly-pro-p-nitroanilide as substrate measured after 20 mins incubation by […] assay.
Series [8] deals with Rattus norvegicus. As to the kind of experiment: Reduction of serum glutamate pyruvate transaminase (SGPT) level in STZ-induced type 2 diabetes male Wistar albino rat model at 10 mg/kg, po measured after 4 weeks by hepatic function test. It is filed as functional, organism-based.

Calls of active or inactive are those of the source. The rule behind the calls is not given here.

Sequence of Dipeptidyl peptidase 8 (Q6V1X1 whole entry): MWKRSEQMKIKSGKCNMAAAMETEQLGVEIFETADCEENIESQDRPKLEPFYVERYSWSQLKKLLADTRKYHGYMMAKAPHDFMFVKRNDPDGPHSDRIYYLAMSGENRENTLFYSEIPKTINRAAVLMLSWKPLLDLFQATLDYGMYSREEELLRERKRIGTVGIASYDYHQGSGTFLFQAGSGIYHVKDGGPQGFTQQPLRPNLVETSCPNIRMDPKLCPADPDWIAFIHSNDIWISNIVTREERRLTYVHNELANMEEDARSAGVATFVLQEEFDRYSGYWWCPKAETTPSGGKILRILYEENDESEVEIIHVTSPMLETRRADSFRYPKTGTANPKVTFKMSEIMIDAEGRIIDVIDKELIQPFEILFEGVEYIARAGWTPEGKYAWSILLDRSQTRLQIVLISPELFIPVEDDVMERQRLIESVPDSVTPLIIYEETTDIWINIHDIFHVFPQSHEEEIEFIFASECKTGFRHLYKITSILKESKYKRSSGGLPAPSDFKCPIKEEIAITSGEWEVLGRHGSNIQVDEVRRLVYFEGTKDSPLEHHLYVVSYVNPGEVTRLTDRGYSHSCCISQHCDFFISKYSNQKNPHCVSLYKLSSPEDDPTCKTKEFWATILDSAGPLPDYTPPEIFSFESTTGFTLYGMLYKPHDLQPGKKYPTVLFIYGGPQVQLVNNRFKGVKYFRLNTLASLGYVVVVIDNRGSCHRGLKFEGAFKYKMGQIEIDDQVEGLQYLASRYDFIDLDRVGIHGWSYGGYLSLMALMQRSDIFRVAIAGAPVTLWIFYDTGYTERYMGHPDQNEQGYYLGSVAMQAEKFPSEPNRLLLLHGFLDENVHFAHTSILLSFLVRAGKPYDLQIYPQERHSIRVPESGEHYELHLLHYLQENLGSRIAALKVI

`CC1=C([N+](=O)[O-])C(c2ccc(F)c(F)c2)N=C(N)N1C(=O)CN1Cc2cn(S(C)(=O)=O)nc2C1` (centres undefined): the Activity in the series with Rattus norvegicus [1] was 101.87 mg/dL; with Rattus norvegicus [2], 118.76 mg/dL; in the series with Rattus norvegicus [3], 123.04 mg/dL; in series [4], “Non-Toxic”; in the series with Rattus norvegicus [5], 119.42 mg/dL; in the series on Rattus norvegicus [6], 54.1 mg/dL. The Activity result in [7] is given as “Non-Toxic”. Moreover, the half-maximal inhibitory concentration (IC50) on Dipeptidyl peptidase 8 came out at 2.9 µM. Also, in the series with Rattus norvegicus [8], the result was Active.

These data come from ChEMBL document CHEMBL6127049, “Discovery of the selective and nanomolar inhibitor of DPP-4 more potent than sitagliptin by structure-guided rational design” (Eur J Med Chem, 2024).
